Consider 13 compounds from ChEMBL document CHEMBL5465560, “Selectivity Literature for EUbOPEN Chemogenomic Library” (2024).

Each structure is given as a SMILES string. pIC50: −log10 of the molar value.

What is called pIC50 is the IC50 on a negative log10 scale, so that one unit is a factor of ten. High values mean a small IC50, low ones a large IC50.

Test [1] concerns the target Mitogen-activated protein kinase kinase kinase 4 (Homo sapiens) (UniProt Q9Y6R4). Particulars: at 10 µM.
Test [2] addresses Serine/threonine-protein kinase PLK1 (Homo sapiens, UniProt P53350). The test can be described thus: Selectivity interaction (KinomeScan (DiscoverX)) EUB0000666a PLK1. Particulars: at 10 µM.
The target of test [3] is Ribosomal protein S6 kinase alpha-1 (Homo sapiens, UniProt Q15418). The test can be described thus: Selectivity interaction (Kinase panel (DSF assay)) EUB0001558a RPS6KA1. For orientation: Differential scanning fluorimetry follows unfolding on heating by fluorescence.
Test [4] has as its target Calcium/calmodulin-dependent protein kinase type 1 (Homo sapiens) (UniProt Q14012). Put plainly: Selectivity interaction (KinomeScan (DiscoverX)) EUB0001079a CAMK1. The following applies: at 1 µM.
The target of test [5] is Tyrosine-protein kinase Lyn (Homo sapiens, UniProt P07948). The test can be described thus: Selectivity interaction (KinaseProfiler screening (Millipore)) EUB0000601a LYN. The following applies: at 3 µM.
The nature of test [6]: Selectivity interaction (NMDA Channel site assay : rat brain cortex ) EUB0000877a GRIN1.
The target of test [7] is Cyclin-dependent kinase 18 (Homo sapiens) (UniProt Q07002). The test can be described thus: Selectivity interaction (ActivX KiNativ screen (kinase selectivity in THP-1 cell lysates)) EUB0000639a CDK18. Particulars: lysate, at 0.01 µM. It counts as subcellular.
Test [8] addresses Fibroblast growth factor receptor 3 (Homo sapiens, UniProt P22607). Put plainly: Selectivity interaction (Millipore kinase profiler) EUB0000124b FGFR3. The following applies: at 10 µM.
Test [9] concerns the target LIM domain kinase 2 (Homo sapiens) (UniProt P53671). The test can be described thus: Selectivity interaction (KinomeScan (DiscoverX)) EUB0000092b LIMK2. Particulars: at 10 µM.
Test [10] has as its target Calcium/calmodulin-dependent protein kinase type 1D (Homo sapiens) (UniProt Q8IU85). The test can be described thus: Selectivity interaction (Kinase panel (DSF assay)) EUB0001559a CAMK1D.
Test [11] concerns the target T1, Ephrin type-B receptor 1 (Homo sapiens) (UniProt P54762).
T1 sequence (whole entry): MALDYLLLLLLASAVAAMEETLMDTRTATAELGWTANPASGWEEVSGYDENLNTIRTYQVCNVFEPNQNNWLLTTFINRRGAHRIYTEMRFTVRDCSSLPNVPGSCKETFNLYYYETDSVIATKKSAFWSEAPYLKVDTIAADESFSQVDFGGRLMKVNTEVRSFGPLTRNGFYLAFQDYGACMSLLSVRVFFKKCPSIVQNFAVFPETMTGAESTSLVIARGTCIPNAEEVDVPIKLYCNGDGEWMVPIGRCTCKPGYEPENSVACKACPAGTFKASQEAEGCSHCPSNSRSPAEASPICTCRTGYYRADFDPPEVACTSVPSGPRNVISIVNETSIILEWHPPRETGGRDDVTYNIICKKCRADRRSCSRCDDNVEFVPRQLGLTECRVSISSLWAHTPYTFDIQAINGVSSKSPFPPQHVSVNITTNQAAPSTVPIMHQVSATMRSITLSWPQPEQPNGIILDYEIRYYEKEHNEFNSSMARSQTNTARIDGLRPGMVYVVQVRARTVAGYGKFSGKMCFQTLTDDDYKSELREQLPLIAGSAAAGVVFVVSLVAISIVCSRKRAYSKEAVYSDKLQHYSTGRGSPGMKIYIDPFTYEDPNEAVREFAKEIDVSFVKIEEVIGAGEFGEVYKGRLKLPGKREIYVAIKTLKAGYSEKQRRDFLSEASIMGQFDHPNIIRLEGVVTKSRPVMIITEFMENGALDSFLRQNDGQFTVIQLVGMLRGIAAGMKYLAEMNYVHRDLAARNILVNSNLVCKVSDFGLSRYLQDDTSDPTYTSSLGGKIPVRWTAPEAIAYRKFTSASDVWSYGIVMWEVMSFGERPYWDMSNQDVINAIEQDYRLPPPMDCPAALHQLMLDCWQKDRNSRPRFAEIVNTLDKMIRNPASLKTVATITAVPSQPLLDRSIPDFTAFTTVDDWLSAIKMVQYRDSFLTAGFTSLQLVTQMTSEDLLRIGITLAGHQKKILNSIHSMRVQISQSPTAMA
The test can be described thus: Selectivity interaction (KinomeScan (DiscoverX)) EUB0000045b EPHB1.

The target of test [12] is T2, Tyrosine-protein kinase TXK (Homo sapiens) (UniProt P42681).
T2 sequence (whole entry): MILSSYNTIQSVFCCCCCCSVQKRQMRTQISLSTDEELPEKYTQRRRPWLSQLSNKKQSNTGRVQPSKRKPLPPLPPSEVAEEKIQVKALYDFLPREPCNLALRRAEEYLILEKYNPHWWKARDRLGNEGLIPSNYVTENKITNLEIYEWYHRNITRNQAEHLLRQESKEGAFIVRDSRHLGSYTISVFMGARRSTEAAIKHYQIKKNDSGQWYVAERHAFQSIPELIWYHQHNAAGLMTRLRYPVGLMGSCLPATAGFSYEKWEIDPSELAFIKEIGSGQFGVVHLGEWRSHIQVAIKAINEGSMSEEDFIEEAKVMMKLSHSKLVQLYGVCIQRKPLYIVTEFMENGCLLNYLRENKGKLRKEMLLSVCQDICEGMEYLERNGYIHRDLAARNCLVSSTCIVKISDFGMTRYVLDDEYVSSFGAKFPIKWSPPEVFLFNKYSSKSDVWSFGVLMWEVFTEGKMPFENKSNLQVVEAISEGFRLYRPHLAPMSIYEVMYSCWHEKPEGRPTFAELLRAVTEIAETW
The test can be described thus: Selectivity interaction (KinomeScan (DiscoverX)) EUB0000045b TXK.

The target of test [13] is Macrophage-stimulating protein receptor (Homo sapiens, UniProt Q04912). The test can be described thus: Selectivity interaction (KinomeScan (DiscoverX)) EUB0000618a MST1R. Particulars: at 10 µM.
Test [14] has as its target T3, Cyclin-dependent kinase-like 2 (Homo sapiens) (UniProt Q92772).
T3 sequence (whole entry): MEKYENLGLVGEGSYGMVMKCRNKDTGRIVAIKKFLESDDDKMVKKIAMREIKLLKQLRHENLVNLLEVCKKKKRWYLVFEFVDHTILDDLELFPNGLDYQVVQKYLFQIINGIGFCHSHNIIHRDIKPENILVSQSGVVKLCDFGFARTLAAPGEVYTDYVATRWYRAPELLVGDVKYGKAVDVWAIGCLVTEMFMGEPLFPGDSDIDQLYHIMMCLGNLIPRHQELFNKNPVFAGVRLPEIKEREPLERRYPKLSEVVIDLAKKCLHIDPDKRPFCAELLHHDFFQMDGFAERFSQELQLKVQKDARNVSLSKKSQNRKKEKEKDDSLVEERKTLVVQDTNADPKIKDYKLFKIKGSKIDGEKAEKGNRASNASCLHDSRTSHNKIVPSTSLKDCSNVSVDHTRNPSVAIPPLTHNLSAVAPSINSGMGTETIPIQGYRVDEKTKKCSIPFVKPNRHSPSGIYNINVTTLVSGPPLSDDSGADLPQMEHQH
Put plainly: Selectivity interaction (KinomeScan (DiscoverX)) EUB0000595a CDKL2. Particulars: at 10 µM.

In test [15] the target is MAP kinase-interacting serine/threonine-protein kinase 2 (Homo sapiens, UniProt Q9HBH9). The test can be described thus: Selectivity interaction (KinomeScan (DiscoverX)) EUB0000595a MKNK2. The following applies: at 10 µM.

Sequence of Ribosomal protein S6 kinase alpha-1 (Q15418 whole entry): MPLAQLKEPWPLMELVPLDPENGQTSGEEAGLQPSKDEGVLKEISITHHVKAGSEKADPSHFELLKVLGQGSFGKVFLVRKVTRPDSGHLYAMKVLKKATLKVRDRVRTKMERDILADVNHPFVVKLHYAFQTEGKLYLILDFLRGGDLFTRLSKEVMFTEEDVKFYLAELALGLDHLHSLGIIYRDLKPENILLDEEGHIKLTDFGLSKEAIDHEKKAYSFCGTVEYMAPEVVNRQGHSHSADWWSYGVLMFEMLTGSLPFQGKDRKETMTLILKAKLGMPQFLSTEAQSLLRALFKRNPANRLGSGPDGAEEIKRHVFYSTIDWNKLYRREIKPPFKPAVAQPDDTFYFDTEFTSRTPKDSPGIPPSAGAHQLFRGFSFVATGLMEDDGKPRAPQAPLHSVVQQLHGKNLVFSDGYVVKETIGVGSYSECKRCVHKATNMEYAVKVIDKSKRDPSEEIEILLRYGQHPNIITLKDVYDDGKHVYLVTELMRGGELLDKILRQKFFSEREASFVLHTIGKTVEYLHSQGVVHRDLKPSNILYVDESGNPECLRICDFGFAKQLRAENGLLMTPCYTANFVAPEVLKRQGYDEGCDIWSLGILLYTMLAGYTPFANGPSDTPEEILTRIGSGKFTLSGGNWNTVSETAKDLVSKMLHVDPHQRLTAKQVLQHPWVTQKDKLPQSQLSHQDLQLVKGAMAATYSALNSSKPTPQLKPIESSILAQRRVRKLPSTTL
Sequence of Macrophage-stimulating protein receptor (Q04912 25-304 limits assumed): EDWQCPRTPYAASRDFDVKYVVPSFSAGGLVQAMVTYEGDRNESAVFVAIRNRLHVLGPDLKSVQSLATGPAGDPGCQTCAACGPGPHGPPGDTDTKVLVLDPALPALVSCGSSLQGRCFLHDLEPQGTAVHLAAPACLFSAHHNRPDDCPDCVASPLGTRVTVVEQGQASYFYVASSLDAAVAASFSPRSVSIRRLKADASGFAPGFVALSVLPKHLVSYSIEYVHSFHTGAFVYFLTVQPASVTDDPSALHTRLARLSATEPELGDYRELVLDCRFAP
Sequence of Macrophage-stimulating protein receptor (Q04912 310-1400 limits assumed): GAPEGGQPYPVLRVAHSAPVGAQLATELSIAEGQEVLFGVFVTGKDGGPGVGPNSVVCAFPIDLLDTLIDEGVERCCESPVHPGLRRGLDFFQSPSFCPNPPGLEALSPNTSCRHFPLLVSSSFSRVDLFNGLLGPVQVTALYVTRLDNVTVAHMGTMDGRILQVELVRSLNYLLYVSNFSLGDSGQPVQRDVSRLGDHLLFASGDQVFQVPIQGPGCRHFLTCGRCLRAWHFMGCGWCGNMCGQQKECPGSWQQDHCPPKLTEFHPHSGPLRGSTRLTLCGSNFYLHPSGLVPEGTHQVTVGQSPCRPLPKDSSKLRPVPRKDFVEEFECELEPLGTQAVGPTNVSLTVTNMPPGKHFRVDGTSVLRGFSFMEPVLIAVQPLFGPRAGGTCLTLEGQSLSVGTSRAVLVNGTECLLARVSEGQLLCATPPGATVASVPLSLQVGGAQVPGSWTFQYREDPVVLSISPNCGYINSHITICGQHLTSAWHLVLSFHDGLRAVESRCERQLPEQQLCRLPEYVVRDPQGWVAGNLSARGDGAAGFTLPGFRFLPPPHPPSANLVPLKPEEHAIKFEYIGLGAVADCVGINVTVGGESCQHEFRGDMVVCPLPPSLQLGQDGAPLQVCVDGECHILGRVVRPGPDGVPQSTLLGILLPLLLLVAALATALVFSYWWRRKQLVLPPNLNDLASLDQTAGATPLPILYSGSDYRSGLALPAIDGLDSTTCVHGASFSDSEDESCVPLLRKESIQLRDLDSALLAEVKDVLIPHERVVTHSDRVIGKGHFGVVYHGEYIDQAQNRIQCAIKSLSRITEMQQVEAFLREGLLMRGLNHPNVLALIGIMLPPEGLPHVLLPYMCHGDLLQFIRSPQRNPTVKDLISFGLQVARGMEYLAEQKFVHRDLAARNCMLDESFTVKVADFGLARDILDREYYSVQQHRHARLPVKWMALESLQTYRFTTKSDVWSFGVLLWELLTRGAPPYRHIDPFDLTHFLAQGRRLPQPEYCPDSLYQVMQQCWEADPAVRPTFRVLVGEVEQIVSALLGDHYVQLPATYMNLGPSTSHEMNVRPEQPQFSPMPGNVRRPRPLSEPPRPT
Sequence of Calcium/calmodulin-dependent protein kinase type 1 (Homo sapiens) (Q14012 whole entry, looked up): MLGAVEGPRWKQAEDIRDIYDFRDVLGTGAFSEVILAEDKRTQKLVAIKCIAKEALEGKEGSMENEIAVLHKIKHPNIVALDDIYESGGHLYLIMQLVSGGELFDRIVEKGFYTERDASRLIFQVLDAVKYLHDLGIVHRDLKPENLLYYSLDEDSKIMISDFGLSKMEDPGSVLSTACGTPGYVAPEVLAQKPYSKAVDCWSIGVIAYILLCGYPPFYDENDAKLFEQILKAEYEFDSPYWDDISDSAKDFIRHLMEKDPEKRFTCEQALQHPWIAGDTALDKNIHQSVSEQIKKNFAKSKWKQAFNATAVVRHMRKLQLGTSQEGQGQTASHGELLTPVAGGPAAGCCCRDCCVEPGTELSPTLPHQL
Sequence of Calcium/calmodulin-dependent protein kinase type 1D (Homo sapiens) (Q8IU85 whole entry, looked up): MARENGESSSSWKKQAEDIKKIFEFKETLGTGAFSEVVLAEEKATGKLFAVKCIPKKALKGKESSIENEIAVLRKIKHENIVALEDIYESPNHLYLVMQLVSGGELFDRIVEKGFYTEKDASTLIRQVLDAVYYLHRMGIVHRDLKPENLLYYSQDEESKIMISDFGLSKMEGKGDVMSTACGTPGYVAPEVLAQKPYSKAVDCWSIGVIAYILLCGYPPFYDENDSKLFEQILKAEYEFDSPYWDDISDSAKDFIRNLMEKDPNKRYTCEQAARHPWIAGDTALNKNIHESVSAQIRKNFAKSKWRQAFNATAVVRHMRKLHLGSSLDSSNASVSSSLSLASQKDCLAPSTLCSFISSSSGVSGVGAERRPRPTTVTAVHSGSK
Sequence of LIM domain kinase 2 (Homo sapiens) (P53671 whole entry, looked up, the tested form may be a part): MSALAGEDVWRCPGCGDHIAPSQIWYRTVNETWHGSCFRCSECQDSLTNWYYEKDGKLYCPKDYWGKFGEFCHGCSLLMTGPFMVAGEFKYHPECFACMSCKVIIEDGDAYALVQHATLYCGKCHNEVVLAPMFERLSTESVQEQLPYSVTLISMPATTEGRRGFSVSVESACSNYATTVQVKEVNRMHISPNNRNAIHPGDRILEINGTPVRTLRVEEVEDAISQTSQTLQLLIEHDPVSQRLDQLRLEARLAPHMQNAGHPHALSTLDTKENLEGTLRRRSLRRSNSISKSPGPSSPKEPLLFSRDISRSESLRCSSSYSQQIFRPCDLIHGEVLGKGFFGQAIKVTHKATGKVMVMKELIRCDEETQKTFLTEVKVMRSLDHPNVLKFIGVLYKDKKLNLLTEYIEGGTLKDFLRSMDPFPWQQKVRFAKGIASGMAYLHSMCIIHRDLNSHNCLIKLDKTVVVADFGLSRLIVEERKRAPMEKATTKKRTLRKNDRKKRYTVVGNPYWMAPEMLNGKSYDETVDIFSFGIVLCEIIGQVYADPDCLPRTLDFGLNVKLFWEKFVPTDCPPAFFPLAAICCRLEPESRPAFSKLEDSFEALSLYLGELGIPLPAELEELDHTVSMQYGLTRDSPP
Sequence of Fibroblast growth factor receptor 3 (P22607 23-806 limits assumed): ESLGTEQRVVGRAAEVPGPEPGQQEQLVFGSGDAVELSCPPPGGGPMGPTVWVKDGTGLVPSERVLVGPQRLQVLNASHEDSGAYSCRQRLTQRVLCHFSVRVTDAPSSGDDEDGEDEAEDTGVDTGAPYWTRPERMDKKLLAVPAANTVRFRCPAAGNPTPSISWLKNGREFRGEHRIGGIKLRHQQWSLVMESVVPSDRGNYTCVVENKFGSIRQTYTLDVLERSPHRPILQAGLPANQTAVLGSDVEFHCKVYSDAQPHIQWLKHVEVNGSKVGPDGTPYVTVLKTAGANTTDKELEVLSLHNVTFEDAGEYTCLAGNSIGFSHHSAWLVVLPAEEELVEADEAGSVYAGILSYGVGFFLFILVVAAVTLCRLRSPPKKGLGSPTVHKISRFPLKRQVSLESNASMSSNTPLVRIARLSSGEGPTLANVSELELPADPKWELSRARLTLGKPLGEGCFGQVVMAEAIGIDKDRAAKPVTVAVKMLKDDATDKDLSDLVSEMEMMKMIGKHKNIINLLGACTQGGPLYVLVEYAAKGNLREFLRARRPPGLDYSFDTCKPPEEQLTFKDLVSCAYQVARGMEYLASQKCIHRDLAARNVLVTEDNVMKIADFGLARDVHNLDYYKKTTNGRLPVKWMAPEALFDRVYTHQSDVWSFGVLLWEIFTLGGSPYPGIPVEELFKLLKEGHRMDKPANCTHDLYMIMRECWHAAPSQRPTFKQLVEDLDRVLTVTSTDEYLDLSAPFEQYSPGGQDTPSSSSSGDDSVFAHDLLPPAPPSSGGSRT
Sequence of Serine/threonine-protein kinase PLK1 (P53350 whole entry): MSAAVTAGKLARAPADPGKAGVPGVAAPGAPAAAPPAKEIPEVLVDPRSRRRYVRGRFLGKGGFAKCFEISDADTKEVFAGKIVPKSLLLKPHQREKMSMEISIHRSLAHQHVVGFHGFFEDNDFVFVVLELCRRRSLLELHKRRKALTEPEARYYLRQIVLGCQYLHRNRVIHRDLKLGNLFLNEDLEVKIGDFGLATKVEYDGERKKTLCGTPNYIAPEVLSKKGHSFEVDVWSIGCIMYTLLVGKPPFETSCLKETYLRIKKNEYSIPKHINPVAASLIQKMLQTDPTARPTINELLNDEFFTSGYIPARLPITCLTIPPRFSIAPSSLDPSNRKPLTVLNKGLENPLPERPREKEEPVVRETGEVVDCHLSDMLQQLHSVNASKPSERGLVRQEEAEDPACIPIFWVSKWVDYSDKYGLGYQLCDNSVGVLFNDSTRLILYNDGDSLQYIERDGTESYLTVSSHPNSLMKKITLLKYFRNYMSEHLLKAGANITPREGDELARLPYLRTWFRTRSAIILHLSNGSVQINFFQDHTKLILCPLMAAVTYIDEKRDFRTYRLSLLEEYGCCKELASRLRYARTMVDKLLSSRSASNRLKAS

For the compound `Cc1cc([C@@H](C)Nc2ccccc2C(=O)O)c2nc(N3CCOCC3)cc(=O)n2c1` [AZD-6482], the % of control in test [1] was determined as 100%.

Compound `O=C(NOC[C@H](O)CO)c1ccc(F)c(F)c1Nc1ccc(I)cc1F` gave a % of control in [2] of 72%.

For the compound `CC(C)(O)[C@H](F)CN1Cc2cc(NC(=O)c3cnn4cccnc34)c(N3CCOCC3)cc2C1=O`, in [3], the dTM was -0.2 K. Consider `Nc1cnc(N2CCc3cc(S(=O)(=O)Nc4c(F)cc(Cl)cc4F)cc(N4CCCC4=O)c32)nc1` [TP-020n], for which the % of control in [4] was found to be 88%. On to `CCc1cc(Nc2nccc(-c3c(-c4ccc(OC)c(C(=O)Nc5c(F)cccc5F)c4)nc4ccccn34)n2)c(OC)cc1N1CCC(N2CCN(S(C)(=O)=O)CC2)CC1`, for which the % of inhibition in test [5] stood at 37%. As to `CCC(=O)N1CC[C@H](Nc2ncnc3c2CN(c2cnc(OC)c(C(F)(F)F)c2)CC3)C1` [LENIOLISIB], the pIC50 in [6] was less than 4.52.

Compound `CC[C@@H]1[C@H](F)C(=O)N[C@@H]1COc1nccc2cc(C(N)=O)c(OC)cc12` [ZIMLOVISERTIB] came in with a % of inhibition in test [7] of 16.3%.

`CC(=O)Nc1cccc(-n2c(=O)n(C3CC3)c(=O)c3c(Nc4ccc(I)cc4F)n(C)c(=O)c(C)c32)c1` showed a % of control in [8] of 98%.

As for `CCC(=O)N1CCN(c2ccc(-n3c(=O)ccc4cnc5ccc(-c6cnc7ccccc7c6)cc5c43)cc2C(F)(F)F)CC1`, in test [9], the % of control came to 4.8%.

Turning to `CN(C(=O)c1cnn2cccnc12)c1cc2c(cc1N1CCOCC1)C(=O)N(C[C@@H](F)C(C)(C)O)C2`, the dTM in test [10] was -0.7 K.

As to `C=CC(=O)Nc1cc(-n2c(=O)ccc3cnc4ccc(-c5ccc(NS(C)(=O)=O)cc5)cc4c32)ccc1C`, the % of control in test [11] (at 1 µM) is 100%; in test [11] (at 10 µM), 100%; in test [12] (at 1 µM), 25%; in test [12] (at 10 µM) it was 2.6%. Compound `O[C@H]1CC[C@H](Nc2ncc3nc(Nc4c(F)cc(F)cc4F)n([C@H]4CCOC4)c3n2)CC1` had a % of control in test [13] of 100%. For the compound `COCC(=O)NC/C=C/c1ccc2ncnc(Nc3ccc(Oc4ccc(C)nc4)c(C)c3)c2c1` [CP-724714], the figures for the % of control in [14] and in test [15] were 91% and 1.4%, respectively.
